From ChEMBL document CHEMBL1201862, “PubChem BioAssay data set” (2004)
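Interpolation was linear, between the two tested concentrations surrounding the appropriate level; five concentrations were tested over 48 hours in 96-well plates. GI50 = concentration required for 50% inhibition of growth.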 Calls of active or inactive are those of the source. No stated cut-off is given here; in the data, active = GI50 up to about 1.1 µM and inactive = higher.

How the values were obtained:
Assay in all cases: NCI tumour cell line growth inhibition, 48 h
MDA-N = test system: MDA-N
NCI/ADR-RES = test system: NCI/ADR-RES
DU-145 = test system: DU-145
KM12 = test system: KM12
K562 = test system: K562
UACC-62 = test system: UACC-62
Malme-3M = test system: Malme-3M
UACC-257 = test system: UACC-257
CCRF-CEM = test system: CCRF-CEM
MDA-MB-435 = test system: MDA-MB-435
SN12C = test system: SN12C
MDA-MB-231 = test system: MDA-MB-231
EKVX = test system: EKVX
786-0 = test system: 786-0
SF-539 = test system: SF-539
IGROV-1 = test system: IGROV-1
BT-549 = test system: BT-549
HL-60 = test system: HL-60
NCI-H226 = test system: NCI-H226
RPMI-8226 = test system: RPMI-8226

COc1ccc(/N=N\c2c(N)nn3c(SC)c(C#N)c(N)nc23)cc1
GI50 (MDA-N): 13.6 µM (inactive)
GI50 (NCI/ADR-RES): 23.4 µM (inactive)
GI50 (DU-145): 5.52 µM (inactive)
GI50 (KM12): 15.1 µM (inactive)
GI50 (K562): 2.16 µM (inactive)
GI50 (UACC-62): 5.71 µM (inactive)
GI50 (Malme-3M): 16.2 µM (inactive)
GI50 (UACC-257): 5.11 µM (inactive)
GI50 (CCRF-CEM): 2.02 µM (inactive)
GI50 (MDA-MB-435): 13.3 µM (inactive)
GI50 (SN12C): 5.27 µM (inactive)
GI50 (MDA-MB-231): 2.32 µM (inactive)
GI50 (EKVX): 3.93 µM (inactive)
GI50 (786-0): 3.67 µM (inactive)
GI50 (SF-539): 19 µM (inactive)
GI50 (IGROV-1): 1.82 µM (inactive)
GI50 (BT-549): 14.9 µM (inactive)
GI50 (HL-60): 2.71 µM (inactive)
GI50 (NCI-H226): 21.4 µM (inactive)
GI50 (RPMI-8226): 2.92 µM (inactive)

CC(=O)O[C@H]1CC[C@@]2(C)C(=CC[C@H]3[C@@H]4C/C(=C\c5ccncc5)[C@H](OC(C)=O)[C@@]4(C)CC[C@@H]32)C1
GI50 (MDA-N): 18.3 µM (inactive)
GI50 (NCI/ADR-RES): 4.34 µM (inactive)
GI50 (DU-145): 15.4 µM (inactive)
GI50 (KM12): 4.57 µM (inactive)
GI50 (K562): 3.15 µM (inactive)
GI50 (UACC-62): 13.2 µM (inactive)
GI50 (Malme-3M): 7.67 µM (inactive)
GI50 (UACC-257): 16.9 µM (inactive)
GI50 (CCRF-CEM): 3.35 µM (inactive)
GI50 (MDA-MB-435): 12.9 µM (inactive)
GI50 (SN12C): 16.9 µM (inactive)
GI50 (MDA-MB-231): 19.1 µM (inactive)
GI50 (EKVX): 9.55 µM (inactive)
GI50 (786-0): 11.3 µM (inactive)
GI50 (SF-539): 3.95 µM (inactive)
GI50 (IGROV-1): 11.6 µM (inactive)
GI50 (BT-549): 3.28 µM (inactive)
GI50 (HL-60): 4.01 µM (inactive)
GI50 (NCI-H226): 11.8 µM (inactive)
GI50 (RPMI-8226): 2.46 µM (inactive)

CCCNC(=O)c1cc(OC)c(OC)cc1NC(=O)C12CC3CC(CC(C3)C1)C2
GI50 (MDA-N): 16.7 µM (inactive)
GI50 (NCI/ADR-RES): 19 µM (inactive)
GI50 (DU-145): 21.2 µM (inactive)
GI50 (KM12): 17.6 µM (inactive)
GI50 (K562): 31.9 µM (inactive)
GI50 (Malme-3M): 17.8 µM (inactive)
GI50 (UACC-257): 17.6 µM (inactive)
GI50 (CCRF-CEM): 28.2 µM (inactive)
GI50 (MDA-MB-435): 17.9 µM (inactive)
GI50 (SN12C): 16.1 µM (inactive)
GI50 (MDA-MB-231): 16.9 µM (inactive)
GI50 (EKVX): 18.2 µM (inactive)
GI50 (786-0): 17 µM (inactive)
GI50 (SF-539): 22.2 µM (inactive)
GI50 (IGROV-1): 22.9 µM (inactive)
GI50 (BT-549): 16.7 µM (inactive)
GI50 (HL-60): 32.7 µM (inactive)
GI50 (NCI-H226): 25.2 µM (inactive)
GI50 (RPMI-8226): 32.4 µM (inactive)

COc1cccc(-c2nc(-c3cnccn3)n(COCCO)n2)c1
GI50 (MDA-N): > 100 µM (inactive)
GI50 (NCI/ADR-RES): > 100 µM (inactive)
GI50 (DU-145): > 100 µM (inactive)
GI50 (KM12): > 100 µM (inactive)
GI50 (K562): > 100 µM (inactive)
GI50 (UACC-62): > 100 µM (inactive)
GI50 (UACC-257): > 100 µM (inactive)
GI50 (CCRF-CEM): > 100 µM (inactive)
GI50 (MDA-MB-435): > 100 µM (inactive)
GI50 (SN12C): > 100 µM (inactive)
GI50 (MDA-MB-231): > 100 µM (inactive)
GI50 (786-0): > 100 µM (inactive)
GI50 (SF-539): > 100 µM (inactive)
GI50 (IGROV-1): > 100 µM (inactive)
GI50 (BT-549): > 100 µM (inactive)
GI50 (HL-60): > 100 µM (inactive)
GI50 (RPMI-8226): > 100 µM (inactive)

N/C(=N\c1cccc(Cl)c1)c1ccccc1N
GI50 (MDA-N): > 100 µM (inactive)
GI50 (NCI/ADR-RES): > 100 µM (inactive)
GI50 (DU-145): > 100 µM (inactive)
GI50 (KM12): > 100 µM (inactive)
GI50 (K562): > 100 µM (inactive)
GI50 (UACC-62): > 100 µM (inactive)
GI50 (Malme-3M): > 100 µM (inactive)
GI50 (UACC-257): > 100 µM (inactive)
GI50 (MDA-MB-435): > 100 µM (inactive)
GI50 (MDA-MB-231): > 100 µM (inactive)
GI50 (EKVX): > 100 µM (inactive)
GI50 (786-0): > 100 µM (inactive)
GI50 (IGROV-1): > 100 µM (inactive)
GI50 (BT-549): > 100 µM (inactive)
GI50 (HL-60): > 100 µM (inactive)
GI50 (NCI-H226): > 100 µM (inactive)
GI50 (RPMI-8226): > 100 µM (inactive)

C[C@@H]1CC[C@@]2(OC1)O[C@H]1C[C@H]3[C@@H]4CC[C@H]5C[C@@H](OC6OC(CO)C(OC7OC(CO)C(O)C(OC8OCC(O)C(O)C8O)C7OC7OC(CO)C(O)C(O)C7O)C(O)C6O)[C@H](O)C[C@]5(C)[C@H]4CC[C@]3(C)[C@H]1[C@@H]2C (stereo partly specified)
GI50 (MDA-N): 10.8 µM (inactive)
GI50 (NCI/ADR-RES): 2.52 µM (inactive)
GI50 (DU-145): 2.42 µM (inactive)
GI50 (KM12): 8 µM (inactive)
GI50 (K562): 2.11 µM (inactive)
GI50 (UACC-62): 20 µM (inactive)
GI50 (Malme-3M): 15.2 µM (inactive)
GI50 (UACC-257): 18.1 µM (inactive)
GI50 (CCRF-CEM): 0.693 µM (active)
GI50 (MDA-MB-435): 13 µM (inactive)
GI50 (MDA-MB-231): 1.76 µM (inactive)
GI50 (EKVX): 5.35 µM (inactive)
GI50 (786-0): > 10 µM (inactive)
GI50 (SF-539): 2.69 µM (inactive)
GI50 (IGROV-1): 2.16 µM (inactive)
GI50 (BT-549): 2.94 µM (inactive)
GI50 (HL-60): 1.49 µM (inactive)
GI50 (NCI-H226): 6.47 µM (inactive)
GI50 (RPMI-8226): 1.85 µM (inactive)

O=C(OCC1CCCN2CCCCC12)c1cccnc1 (stereo unspecified)
GI50 (MDA-N): > 100 µM (inactive)
GI50 (NCI/ADR-RES): > 100 µM (inactive)
GI50 (DU-145): > 100 µM (inactive)
GI50 (KM12): > 100 µM (inactive)
GI50 (K562): > 100 µM (inactive)
GI50 (UACC-62): > 100 µM (inactive)
GI50 (Malme-3M): > 100 µM (inactive)
GI50 (UACC-257): > 100 µM (inactive)
GI50 (CCRF-CEM): > 100 µM (inactive)
GI50 (MDA-MB-435): > 100 µM (inactive)
GI50 (SN12C): > 100 µM (inactive)
GI50 (MDA-MB-231): > 100 µM (inactive)
GI50 (EKVX): > 100 µM (inactive)
GI50 (786-0): > 100 µM (inactive)
GI50 (SF-539): > 100 µM (inactive)
GI50 (BT-549): > 100 µM (inactive)
GI50 (HL-60): > 100 µM (inactive)
GI50 (NCI-H226): > 100 µM (inactive)
GI50 (RPMI-8226): > 100 µM (inactive)
